Data published in US7632933B2, “Corticotropin releasing factor 2 receptor agonists” (priority 2002, dated 2009).
Ends that are not written are not given here. Peptide text beside a SMILES is read from it.

Assays:
CRF2R = target: T1, CRF2R (Homo sapiens, UniProt Q13324); assay: CRF2R agonist activity (EC50 and Emax), called comparative CRF binding; assay type: cell-based; conditions: CRF2R; for EC50: read-out: CRF2R EC50
T1 sequence (Q13324 1-411): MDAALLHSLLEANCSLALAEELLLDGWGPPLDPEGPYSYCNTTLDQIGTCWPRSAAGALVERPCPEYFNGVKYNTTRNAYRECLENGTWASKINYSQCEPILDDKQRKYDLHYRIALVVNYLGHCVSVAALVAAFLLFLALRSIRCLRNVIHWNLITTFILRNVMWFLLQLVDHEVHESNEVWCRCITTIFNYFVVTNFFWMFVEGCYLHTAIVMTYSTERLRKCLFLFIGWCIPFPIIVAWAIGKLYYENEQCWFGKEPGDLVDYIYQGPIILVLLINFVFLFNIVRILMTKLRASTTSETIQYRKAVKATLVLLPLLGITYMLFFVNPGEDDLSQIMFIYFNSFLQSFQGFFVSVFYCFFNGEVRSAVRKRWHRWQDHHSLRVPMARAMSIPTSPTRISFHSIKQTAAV
Text: (§1) The pharmacological activity and selectivity of the peptides of present invention can be determined using published test procedures. See, e.g, U.S. patent application Ser. No. 09/799,978. Because CRF2R and CRF1R are homologous proteins, it is expected that a certain proportion of agonists for CRF2R will also function as agonists of CRF1R. As discussed above, activation of CRF1R induces activation of the HPA axis since increased corticosteroid production leads to skeletal muscle atrophy. In most cases in which an increase in muscle mass or function is desired, it is not desirable to activate the HPA axis.
(§2) Because it is desirable to discriminate binding between CRF2R, as compared with CRF1R, the assays described above may be conducted using a cell, or membrane from a cell, which expresses only CRF2R or the assays can be conducted with a recombinant source of CRF2R. Cells expressing both forms of CRFR may be modified using homologous recombination to inactivate or otherwise disable the CRF1R gene. Alternatively, if the source of CRFR contains more than one CRFR type, the background signal produced by the receptor which is not of interest must be subtracted from the signal obtained in the assay. […] Known antagonists of CRFRs include, but are not limited to, antalarmin (CRF1R selective), antisauvagine-30 (CRF2R selective) and astressin (nonselective for CRF1R/CRF2R).
(§3) Cell-based assays include the steps of contacting cells which express CRF1R or CRF2R with a peptide of the present invention or control and measuring activation of the CRFR by measuring the expression or activity of components of the CRFR signal transduction pathways.
(§4) For example, after contact with a peptide of the present invention, lysates of the cells can be prepared and assayed for induction of cAMP. cAMP is induced in response to Gαs activation. Because Gαs is activated by receptors other than CRFR and because a test peptide may be exerting its effect through CRFRs or by another mechanism, two control comparisons are relevant for determining whether the peptide increases levels of cAMP via activation of a CRFR. One control compares the cAMP level of cells contacted with the peptide and the cAMP level of cells contacted with a control compound (i.e., the vehicle in which the peptide is dissolved).
(§5) In one example, cAMP induction is measured with the use of DNA constructs containing the cAMP responsive element linked to any of a variety of reporter genes can be introduced into cells expressing CRFRs. Such reporter genes include, but are not limited to, chloramphenicol acetyltransferase (CAT), luciferase, glucuronide synthetase, growth hormone, fluorescent proteins (e.g., Green Fluorescent Protein), or alkaline phosphatase. Following exposure of the cells to the peptide, the level of reporter gene expression can be quantitated to determine the peptide's ability to increase cAMP levels and thus determine the peptide's ability to activate the CRFR.
(§6) In addition to using cells expressing full length CRFRs, cells can be engineered which express CRFRs containing the ligand binding domain of the receptor coupled to, or physically modified to contain, reporter elements or to interact with signaling proteins. For example, a wild type CRFR or CRFR fragment can be fused to a G-protein resulting in activation of the fused G-protein upon agonist binding to the CRFR portion of the fusion protein. […] In addition, alternative pathways for induction of the CRE reporter could be eliminated to reduce basal levels.

CRF1R = target: T2, CRF1R (Homo sapiens, UniProt P34998); assay: CRF1R agonist activity (EC50 and Emax), called comparative CRF binding; assay type: cell-based; conditions: CRF1R; for EC50: read-out: CRF1R EC50
T2 sequence (P34998 24-415): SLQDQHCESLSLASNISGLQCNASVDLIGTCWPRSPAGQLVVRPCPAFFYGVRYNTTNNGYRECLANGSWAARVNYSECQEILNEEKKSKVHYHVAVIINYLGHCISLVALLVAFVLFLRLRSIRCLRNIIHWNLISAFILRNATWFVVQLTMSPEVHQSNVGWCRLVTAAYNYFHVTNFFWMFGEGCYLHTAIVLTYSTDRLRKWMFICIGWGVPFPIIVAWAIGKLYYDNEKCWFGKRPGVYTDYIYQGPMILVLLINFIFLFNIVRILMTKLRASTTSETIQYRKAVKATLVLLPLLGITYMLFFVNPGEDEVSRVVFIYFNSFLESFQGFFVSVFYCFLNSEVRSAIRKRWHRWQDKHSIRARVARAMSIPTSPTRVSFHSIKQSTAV
Text: as §1, §2, §3, §4, §5, §6

CC[C@H](C)[C@H](N)C(=O)N[C@H](C(=O)N[C@@H](CC(C)C)C(=O)N[C@@H](CO)C(=O)N[C@@H](CC(C)C)C(=O)N[C@@H](CC(=O)O)C(=O)N[C@H](C(=O)N1CCC[C@H]1C(=O)N[C@H](C(=O)NCC(=O)N[C@@H](CC(C)C)C(=O)N[C@@H](CC(C)C)C(=O)N[C@@H](CCC(N)=O)C(=O)N[C@H](C(=O)N[C@@H](CC(C)C)C(=O)N[C@@H](CC(C)C)C(=O)N[C@@H](CCC(=O)O)C(=O)N[C@@H](CCC(N)=O)C(=O)N[C@@H](C)C(=O)N[C@@H](C)C(=O)N[C@@H](CCCNC(=N)N)C(=O)N[C@@H](C)C(=O)N[C@@H](C)C(=O)N[C@@H](CCCNC(=N)N)C(=O)N[C@@H](CCC(=O)O)C(=O)N[C@@H](CCC(N)=O)C(=O)N[C@@H](C)C(=O)N[C@H](C(=O)N[C@H](C(=O)N[C@@H](CC(N)=O)C(=O)N[C@@H](C)C(=O)N[C@@H](CCCNC(=N)N)C(=O)N[C@H](C(=O)N[C@@H](CC(C)C)C(=O)N[C@@H](C)C(=O)N[C@@H](CCCNC(=N)N)C(=O)N[C@H](C(N)=O)C(C)C)[C@@H](C)CC)[C@@H](C)O)[C@@H](C)O)[C@@H](C)CC)[C@@H](C)CC)C(C)C)C(C)C [compound 135] (H-IVLSLDVPIGLLQILLEQAARAAREQATTNARILARV-NH2)
EC50 (CRF2R): > 100 nM | EC50 (CRF1R): > 100 nM

CC[C@H](C)[C@H](N)C(=O)N[C@H](C(=O)N[C@@H](CC(C)C)C(=O)N[C@@H](CO)C(=O)N[C@@H](CC(C)C)C(=O)N[C@@H](CC(=O)O)C(=O)N[C@H](C(=O)N1CCC[C@H]1C(=O)N[C@H](C(=O)NCC(=O)N[C@@H](CC(C)C)C(=O)N[C@@H](CC(C)C)C(=O)N[C@@H](CCC(N)=O)C(=O)N[C@@H](CCC(=O)O)C(=O)N[C@H](C(=O)N[C@@H](CC(C)C)C(=O)N[C@@H](CCC(=O)O)C(=O)N[C@@H](CCSC)C(=O)N[C@@H](C)C(=O)N[C@@H](CCCNC(=N)N)C(=O)N[C@@H](C)C(=O)N[C@@H](CCC(=O)O)C(=O)N[C@@H](CCC(N)=O)C(=O)N[C@@H](CC(C)C)C(=O)N[C@@H](C)C(=O)N[C@@H](CCC(N)=O)C(=O)N[C@@H](CCC(N)=O)C(=O)N[C@@H](C)C(=O)N[C@@H](Cc1c[nH]cn1)C(=O)N[C@@H](CO)C(=O)N[C@@H](CC(N)=O)C(=O)N[C@@H](CCCNC(=N)N)C(=O)N[C@@H](CCCCN)C(=O)N[C@@H](CC(C)C)C(=O)N[C@@H](CCSC)C(=O)N[C@@H](CCC(=O)O)C(=O)N[C@H](C(=O)N[C@H](C(N)=O)[C@@H](C)CC)[C@@H](C)CC)C(C)C)[C@@H](C)CC)C(C)C)C(C)C [compound 165] (H-IVLSLDVPIGLLQEVLEMARAEQLAQQAHSNRKLMEII-NH2)
EC50 (CRF2R): > 100 nM | EC50 (CRF1R): > 100 nM

SQEPPISLDLPTYLLREVLEMTKADQLAQQAHSNRKLLDIA-NH2 [compound 106]
EC50 (CRF2R): ≥ 100 nM | EC50 (CRF1R): ≥ 100 nM

SQEPPISLDLPIGLLREVLEMTKADQLAQQAHSNRKLLDIA-NH2 [compound 93]
EC50 (CRF2R): ≥ 100 nM | EC50 (CRF1R): ≥ 100 nM

SQEPPISLDLPFELLREVLEMTKADQLAQQAHSNRKLLDIA-NH2 [compound 97]
EC50 (CRF2R): ≥ 100 nM | EC50 (CRF1R): ≥ 100 nM

CC[C@H](C)[C@H](N)C(=O)N[C@H](C(=O)N[C@@H](CC(C)C)C(=O)N[C@@H](CO)C(=O)N[C@@H](CC(C)C)C(=O)N[C@@H](CC(=O)O)C(=O)N[C@H](C(=O)N1CCC[C@H]1C(=O)N[C@H](C(=O)NCC(=O)N[C@@H](CC(C)C)C(=O)N[C@@H](CC(C)C)C(=O)N[C@@H](CCC(N)=O)C(=O)N[C@H](C(=O)N[C@@H](CC(C)C)C(=O)N[C@@H](CC(C)C)C(=O)N[C@@H](CCC(=O)O)C(=O)N[C@@H](CCC(N)=O)C(=O)N[C@@H](C)C(=O)N[C@@H](CCCNC(=N)N)C(=O)N[C@@H](C)C(=O)N[C@@H](CCCNC(=N)N)C(=O)N[C@@H](C)C(=O)N[C@@H](C)C(=O)N[C@@H](CCCNC(=N)N)C(=O)N[C@@H](CCC(=O)O)C(=O)N[C@@H](CCC(N)=O)C(=O)N[C@@H](C)C(=O)N[C@H](C(=O)N[C@H](C(=O)N[C@@H](CCC(N)=O)C(=O)N[C@@H](C)C(=O)N[C@@H](CCCNC(=N)N)C(=O)N[C@H](C(=O)N[C@@H](CC(C)C)C(=O)N[C@@H](C)C(=O)N[C@@H](CCCNC(=N)N)C(=O)N[C@H](C(N)=O)C(C)C)[C@@H](C)CC)[C@@H](C)O)[C@@H](C)O)[C@@H](C)CC)[C@@H](C)CC)C(C)C)C(C)C [compound 9] (H-IVLSLDVPIGLLQILLEQARARAAREQATTQARILARV-NH2)
EC50 (CRF2R): ≥ 100 nM | EC50 (CRF1R): ≥ 100 nM

NDDPPISIDLPFQLLRNMIEMARIENEREQAGLNAKYLAEV-NH2 [compound 258]
EC50 (CRF2R): ≥ 100 nM | EC50 (CRF1R): ≥ 1000 nM

SQEPPISLDLPFQLLREVLEMTKADQLAQQAHSNRKLLDIA-NH2 [compound 91]
EC50 (CRF2R): ≥ 100 nM | EC50 (CRF1R): ≥ 100 nM

SQEPPISLDLPIQLLREVLEMTKADQLAQQAHSNRKLLDIA-NH2 [compound 100]
EC50 (CRF2R): ≥ 100 nM | EC50 (CRF1R): ≥ 100 nM

SQEPPISLDLPTGLLREVLEMTKADQLAQQAHSNRKLLDIA-NH2 [compound 98]
EC50 (CRF2R): ≥ 100 nM | EC50 (CRF1R): ≥ 100 nM

SQEIVLSLDVPIGLLREVLEMTKADQLAQQAHSNRKLLDIA-NH2 [compound 7]
CRF2R (Emax %) (CRF2R; Emax): (19) % | CRF1R (Emax %) (CRF1R; Emax): (4) %

CC[C@H](C)[C@H](NC(=O)[C@H](C)NC(=O)[C@H](CC(N)=O)NC(=O)[C@H](CCC(N)=O)NC(=O)[C@H](CCC(=O)O)NC(=O)[C@H](C)NC(=O)[C@H](CCCNC(=N)N)NC(=O)[C@H](CCC(=O)O)NC(=O)[C@H](CCCNC(=N)N)NC(=O)[C@H](CCC(N)=O)NC(=O)[C@H](CO)NC(=O)[C@H](CCC(N)=O)NC(=O)[C@@H](NC(=O)[C@H](CCCNC(=N)N)NC(=O)[C@H](C)NC(=O)[C@H](CC(C)C)NC(=O)[C@H](CCC(=O)O)NC(=O)[C@H](CC(C)C)NC(=O)[C@H](CC(C)C)NC(=O)[C@@H](NC(=O)[C@H](CCCNC(=N)N)NC(=O)[C@H](CC(C)C)NC(=O)[C@H](CC(C)C)NC(=O)[C@H](Cc1ccccc1)NC(=O)[C@H](Cc1ccccc1)NC(=O)[C@@H]1CCCN1C(=O)[C@H](CC(C)C)NC(=O)[C@H](CC(=O)O)NC(=O)[C@@H](NC(=O)[C@H](CO)NC(=O)[C@H](CC(C)C)NC(=O)[C@H](CO)NC(=O)[C@@H]1CCCN1C(=O)[C@H](CC(N)=O)NC(=O)[C@@H](N)CC(=O)O)[C@@H](C)CC)[C@@H](C)O)[C@@H](C)O)C(=O)N[C@H](C(=O)N[C@@H](Cc1ccccc1)C(=O)N[C@@H](C)C(=O)N[C@@H](CO)C(=O)N[C@H](C(N)=O)C(C)C)[C@@H](C)CC [compound 184] (H-DNPSLSIDLPFFLLRTLLELARTQSQRERAEQNAIIFASV-NH2; N-terminus assumed)
EC50 (CRF2R): 3.72 nM | EC50 (CRF1R): 486 nM

NDDPPISIDLPYYLLRNMIEMARIENEREQAGLNAKYLAEV-NH2 [compound 267]
EC50 (CRF2R): ≥ 100 nM | EC50 (CRF1R): ≥ 1000 nM

SEEPPISLDVPIGLLQEVLEMARAEQLAQQAHSNRKLMEII-NH2 [compound 162]
EC50 (CRF2R): > 100 nM | EC50 (CRF1R): > 100 nM

SQEPPISLDLPTHLLREVLEMTKADQLAQQAHSNRKLLDIA-NH2 [compound 99]
EC50 (CRF2R): ≥ 100 nM | EC50 (CRF1R): ≥ 100 nM
